Read-outs that look alike come from different tables or passages of the source.
System: Plasmopara viticola
Assay: Fungicidal effectiveness against Peronospora (Plasmopara viticola) in preventive leaf application on vines
Type: in vivo
Conditions: 168 h, read-out: Effectiveness expressed as leaf diffusion control % of the disease with respect to a non-treated reference
Protocol: Determination of the Fungicidal Effectiveness Against Peronospora (Plasmapara viticola) of Compounds Having Formula (I) and (II) in Preventive Leaf Application
Cultivar Dolcetto vine leaves, grown in vases in a conditioned environment (20±1° C.), 70% relative humidity), are treated by spraying both sides of the leaves with compounds 1-7 dispersed in a hydroacetone solution at 20% by volume of acetone.
After remaining 24 hours in a conditioned environment, the plants are sprayed on both sides of the leaf with an aqueous suspension of conidia of Plasmopara viticola (200,000 conidia per cm^3).
The plants are kept in a humidity saturated environment, at 21° C., for the incubation period of the fungus and, at the end of this period (7 days), the fungicidal activity is evaluated according to an evaluation percentage scale from 100 (healthy plant) to 0 (completely infected plant).

[1] = Dose 0.45 g/hl, preventive leaf application on Dolcetto vines, inoculation 24 hours after treatment, evaluation after 7 days, scale 100 (healthy plant) to 0 (completely infected plant)
[2] = Dose 1.8 g/hl, preventive leaf application on Dolcetto vines, inoculation 24 hours after treatment, evaluation after 7 days, scale 100 (healthy plant) to 0 (completely infected plant)
[3] = Dose 7.5 g/hl, preventive leaf application on Dolcetto vines, inoculation 24 hours after treatment, evaluation after 7 days, scale 100 (healthy plant) to 0 (completely infected plant)
[4] = Dose 30 g/hl, preventive leaf application on Dolcetto vines, inoculation 24 hours after treatment, evaluation after 7 days, scale 100 (healthy plant) to 0 (completely infected plant)

Row | SMILES | pest or weed control at 0.45 g/hl [1] [%] | pest or weed control at 1.8 g/hl [2] [%] | pest or weed control at 7.5 g/hl [3] [%] | pest or weed control at 30 g/hl [4] [%] | pest or weed control at 0.45 g/hl [%] | pest or weed control at 1.8 g/hl [%] | pest or weed control at 7.5 g/hl [%] | pest or weed control at 30 g/hl [%]
1 | COC(=O)CC(NC(=O)[C@@H](NC(=O)OC(C)C)C(C)C)c1ccc(Cl)cc1 (mixture of isomers) [Compound 1, methyl (±)RS-[3-(N-isopropoxy-carbonyl-S-valinyl)amino]-3-(4-chlorophenyl)propanoate] | 80 | 100 | 100 | 100 |  |  |  | 
2 | COC(=O)C[C@@H](NC(=O)[C@@H](NC(=O)OC(C)C)C(C)C)c1ccc(Cl)cc1 (racemic) [Compound 2, methyl (±)R-[3-(N-isopropoxycarbonyl-S-valinyl)amino]-3-(4-chlorophenyl)propanoate] | 100 | 100 | 100 | 100 |  |  |  | 
3 | COC(=O)CC(NC(=O)[C@@H](NC(=O)OC(C)C)C(C)C)c1nc2ccccc2s1 (mixture of isomers) [Compound 8, methyl (±)RS-[3-(N-isopropoxycarbonyl-S-valinyl)amino]-3-(benzothiazol-2-yl)propanoate] | 70 | 92 | 100 | 100 |  |  |  | 
4 | COC(=O)CC(NC(=O)[C@@H](NC(=O)OC(C)C)C(C)C)c1nc2cc(Cl)ccc2s1 (mixture of isomers) [Compound 9, methyl (±)RS-[3-(N-isopropoxycarbonyl-S-valinyl)amino]-3-(5-chlorobenzothiazol-2-yl)propanoate] | 90 | 100 | 100 | 100 |  |  |  | 
5 | COC(=O)C[C@H](NC(=O)[C@@H](NC(=O)OC(C)C)C(C)C)c1ccc(Cl)cc1 [Compound 3, methyl (−)S-[3-(N-isopropoxycarbonyl-S-valinyl)amino]-3-(4-chlorophenyl)propanoate] | 65 | 85 | 100 | 100 |  |  |  | 
6 | COC(=O)CC(NC(=O)[C@@H](NC(=O)OC(C)C)C(C)C)c1ccc(C)cc1 (stereo partly shown) [Compound 4, methyl RS-[3-(N-isopropoxycarbonyl-S-valinyl)amino]-3-(4-methylphenyl)propanoate] | 75 | 100 | 100 | 100 |  |  |  | 
7 | CCc1ccc(C(CC(=O)OC)NC(=O)[C@@H](NC(=O)Oc2ccccc2)C(C)C)cc1 (stereo partly shown) [Compound 5, methyl RS-[3-(N-phenoxycarbonyl-S-valinyl)amino]-3-(4-ethylphenyl)propanoate] |  |  |  |  | 70 | 90 | 100 | 100
8 | COC(=O)CC(NC(=O)[C@@H](NC(=O)OC(C)C)C(C)C)c1ccc(OC)cc1 (stereo partly shown) [Compound 6, methyl RS-[3-(N-isopropoxycarbonyl-S-valinyl)amino]-3-(4-methoxyphenyl)propanoate] | 65 | 92 | 100 | 100 |  |  |  | 
9 | COC(=O)CC(NC(=O)[C@@H](NC(=O)OC(C)C)C(C)C)c1ccc(C#N)cc1 (stereo partly shown) [Compound 7, methyl RS-[3-(N-isopropoxycarbonyl-S-valinyl)amino]-3-(4-cyanophenyl)propanoate] | 67 | 90 |  | 100 |  |  |  | 
10 | COC(=O)CC(NC(=O)[C@@H](NC(=O)OC(C)(C)C)C(C)C)c1ccccc1 (stereo partly shown) [Reference 1, reference compound] | 0 | 20 | 90 | 100 |  |  |  | 
11 | COC(=O)CC(NC(=O)[C@@H](NC(=O)OC(C)(C)C)C(C)C)c1ccc(Cl)cc1 (stereo partly shown) [Reference 2, reference compound] | 30 | 65 | 88 | 100 |  |  |  | 
12 | COC(=O)CC(NC(=O)[C@@H](NC(=O)OC(C)C)C(C)C)c1ccccc1 (stereo partly shown) [Reference 3, reference compound] | 10 | 55 | 91 | 100 |  |  |  | 
13 | COC(=O)C(C)(C)C(NC(=O)[C@@H](NC(=O)OC(C)C)C(C)C)c1ccccc1 (stereo partly shown) [Reference 4, reference compound] | 15 | 55 | 75 | 90 |  |  |  | 
14 | CC(C)OC(=O)CC(NC(=O)[C@@H](NC(=O)OC(C)C)C(C)C)c1ccccc1 (stereo partly shown) [Reference 5, reference compound] | 0 | 15 | 75 | 96 |  |  |  | 
